Measurements: patent US20260206761A1, “HETEROARYL-TRIAZOLE COMPOUNDS AS PESTICIDES” (Bayer Aktiengesellschaft, priority 2019, published 2026)

Key:
Type in all cases: in vivo
[1] = tested on: Aedes aegypti strain MONHEIM; experiment: Aedes aegypti test (AEDSAE surface treatment & contact assay); details: 24 hours after contact, read-out: efficacy (mortality); for mortality at 4 mg/m2: surface concentration 4 mg/m^2, exposure 30 minutes; for mortality at 20 mg/m2: surface concentration 20 mg/m^2, exposure 30 minutes
Summary of the method: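 Percent mortality was read 24 h after adult MONHEIM mosquitoes were held for 30 min on a tile treated with compound. Compound applied from acetone solution (2 mg/ml) containing 2000 ppm rapeseed oil methyl ester, after evaporation.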

[2] = tested on: Rhipicephalus microplus larvae (strain Parkhurst, resistant against synthetic pyrethroids); experiment: Rhipicephalus (Boophilus) microplus in-vitro contact test, larval cattle tick; details: after 48 hours, read-out: activity (efficacy: larvae dead or moribund); for pest or weed control at 100 g/ha: application rate 1 pg/cm^2 (=100 g/ha); for pest or weed control at 500 g/ha: application rate 5 pg/cm^2 (=500 g/ha)
Summary of the method: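 Larvae (20-50 per tube) exposed to dry compound film on glass tube walls, 5 μg/cm^2 at 900 ppm, applied from acetone. After 48 h at 27° C./85% RH, tubes tapped and negative geotaxis scored; efficacy as percent dead or moribund larvae.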

[3] = tested on: adult cat fleas (Ctenocephalides felis); experiment: Ctenocephalides felis in-vitro contact test, adult cat flea; details: application rate 5 μg/cm^2 (=500 g/ha), after 48 hours, read-out: activity (efficacy: fleas dead or moribund)
Summary of the method: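 Efficacy, as % of fleas dead or moribund, was read 48 h after 5-10 adult cat fleas were confined in glass tubes whose walls carried dried compound film (900 ppm, […]). Fleas failing to escape upward from a 45-50° C plate within 5 min counted as dead or moribund.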

[4] = tested on: fall armyworm larvae (Spodoptera frugiperda); experiment: Spodoptera frugiperda spray test; details: 168 h, read-out: activity (mortality)
Summary of the method: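 Larvae of fall armyworm placed on dried maize leaf sections previously sprayed with emulsified compound (acetone/DMF solvent, water with 1000 ppm emulsifier). Percent of caterpillars killed recorded on day 7, 0–100% scale.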

[5] = tested on: adult unfed cat fleas (Ctenocephalides felis); experiment: Ctenocephalides felis oral test; details: 48 h, read-out: activity (mortality)
Summary of the method: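 About 20 adult unfed fleas fed through parafilm on cattle blood containing compound (DMSO stock diluted in blood), blood held at 37 °C and fleas at room temperature. Mortality (%) scored after 2 days.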

[6] = tested on: larvae of the southern green stink bug (Nezara viridula); experiment: Nezara viridula spray test; details: 96 h, after 4 days; for mortality at 100 g/ha: application rate 100 g/ha; for mortality at 500 g/ha: application rate 500 g/ha
Summary of the method: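 Larva-infested barley (Hordeum vulgare) plants received a spray of test solution prepared from an acetone/DMF concentrate diluted in emulsifier-containing water (1000 ppm). Percent kill read 4 days later; 0% means no stink bugs dead.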

[7] = tested on: green peach aphid (Myzus persicae); experiment: Myzus persicae oral test; details: 120 h, application rate 4 ppm, after 5 days
Summary of the method: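 Readout: % mortality at day 5, where 100% = all aphids dead and 0% = none dead. Feeding via parafilm membrane over compound in IPL41 medium (33%+15% sugar); mixed-age population. Stock in acetone (1:100 w/w), water-diluted.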

[8] = tested on: green peach aphid (Myzus persicae); experiment: Myzus persicae spray test; details: 120 h, after 5 days; for mortality at 100 g/ha: application rate 100 g/ha; for mortality at 500 g/ha: application rate 500 g/ha
Summary of the method: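 Chinese cabbage leaf disks carrying all instars of M. persicae sprayed with compound in acetone/DMF, diluted in water with 1000 ppm alkylarylpolyglycol ether emulsifier. Percent mortality scored after 5 days (100% = all aphids killed).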

Structure (SMILES) | mortality at 4 mg/m2 [1] [%] | mortality at 20 mg/m2 [1] [%] | pest or weed control at 100 g/ha [2] [%] | pest or weed control at 5 µg/cm2 [3] [%] | mortality at 100 g/ha [4] [%] | mortality at 500 g/ha [4] [%] | mortality at 100 ppm [5] [%] | mortality at 100 g/ha [6] [%] | mortality at 500 g/ha [6] [%] | mortality at 4 ppm [7] [%] | pest or weed control at 500 g/ha [2] [%] | mortality at 100 g/ha [8] [%] | mortality at 500 g/ha [8] [%]
C[C@H](NC(=O)c1cc(Cl)cc(S(C)(=O)=O)c1)c1nc(C2CC2)nn1-c1ccc(C#N)cn1 [I-4] | 80 to 100 | 80 to 100 | 90 | 90 | 100 | 100 | 100 | 100 | 100 | 100 | – | – | –
CC(C)c1nc([C@H](C)NC(=O)c2cc(OC(F)(F)F)cc(C3CC3)c2)n(-c2ccc(C#N)cn2)n1 [I-23] | 80 to 100 | 80 to 100 | 100 | 100 | 100 | – | 100 | – | – | – | 100 | 90 | –
Cc1nc([C@H](C)NC(=O)c2cc(C(F)(F)F)n(C)n2)n(-c2ccc(C#N)cn2)n1 [II-7] | 80 to 100 | 80 to 100 | – | 100 | 100 | 100 | 100 | – | 90 | – | 100 | – | –
Cc1nc([C@H](C)NC(=O)c2cc(Cl)nn2C)n(-c2ccc(C#N)cn2)n1 [II-11] | 80 to 100 | 80 to 100 | 100 | 100 | – | 100 | 100 | – | – | – | 100 | – | –
C[C@H](NC(=O)c1cc(C#N)cc([S+](C)[O-])c1)c1ncnn1-c1ccc(C#N)cn1 (stereo partly shown) [II-12] | 80 to 100 | 80 to 100 | 80 | 100 | – | 100 | – | 100 | 100 | 100 | 100 | 90 | 90
C[C@H](NC(=O)c1cc(C(F)(F)F)cc(S(C)(=O)=O)c1)c1ncnn1-c1ncccn1 [II-13] | 80 to 100 | 80 to 100 | – | 100 | – | 100 | – | 100 | 100 | 100 | 80 | 90 | 100
C[C@H](NC(=O)c1cc(C(F)(F)F)cc(S(C)(=O)=O)c1)c1ncnn1-c1ccc(Cl)cn1 [II-16] | 80 to 100 | 80 to 100 | 100 | 100 | 100 | 100 | 100 | 100 | 100 | 100 | 100 | – | –
C[C@H](NC(=O)c1cc(Cl)cc(S(=O)(=O)C(F)F)c1)c1ncnn1-c1ccc(C#N)cn1 [II-17] | 80 to 100 | 80 to 100 | 100 | 100 | 83 | 100 | 100 | – | 100 | 100 | 100 | – | –
C[C@H](NC(=O)c1cc(Cl)cc([S+]([O-])C(F)F)c1)c1ncnn1-c1ccc(C#N)cn1 (stereo partly drawn) [II-18, 3-chloro-N-{(1S)-1-[1-(5-cyanopyridin-2-yl)-1H-1,2,4-triazol-5-yl]ethyl}-5-[(difluoro-methyl)sulfinyl]benzamide] | 80 to 100 | 80 to 100 | 100 | 100 | 100 | 100 | 100 | 100 | 100 | 100 | 100 | – | –
C[C@H](NC(=O)c1cc(OC(F)(F)F)cc(C2CC2)c1)c1ncnn1-c1ccc(Cl)cn1 [II-23] | 80 to 100 | 80 to 100 | 100 | 100 | 100 | 100 | – | 100 | 100 | – | 100 | 100 | 100
Cc1nc([C@H](C)NC(=O)c2cc(C(F)(F)F)n(C)n2)n(-c2ncccn2)n1 [II-25] | 80 to 100 | 80 to 100 | 100 | 100 | – | – | – | 100 | 100 | – | 100 | – | 90
C[C@H](NC(=O)c1cc(C2CC2)cc(C(F)(F)F)c1)c1ncnn1-c1ccc(C#N)cn1 [II-26] | 80 to 100 | 80 to 100 | 100 | 90 | 100 | 100 | – | 100 | 100 | 100 | 100 | 90 | 100
C[C@H](NC(=O)c1cc(C2CC2)cc(C(F)(F)F)c1)c1ncnn1-c1ccc(Cl)cn1 [II-27] | 80 to 100 | 80 to 100 | 100 | 100 | 100 | 100 | 100 | 100 | 100 | – | 100 | – | –
C[C@H](NC(=O)c1cc(C(F)(F)F)cc(S(=O)(=O)C2CC2)c1)c1ncnn1-c1ccc(C#N)cn1 [II-32] | 80 to 100 | 80 to 100 | 100 | – | 100 | 100 | 100 | 100 | 100 | 100 | 100 | – | 90
Cc1nc([C@H](C)NC(=O)c2cc(Cl)cc(C3(C#N)CC3)c2)n(-c2ccc(C#N)cn2)n1 [II-38] | 80 to 100 | – | 100 | 100 | 100 | – | 100 | – | – | 100 | 100 | 90 | –
Cc1nc([C@H](C)NC(=O)c2cc(OC(F)(F)F)cc(C3CC3)c2)n(-c2ccc(C#N)cn2)n1 [II-39] | 80 to 100 | 80 to 100 | 100 | 100 | 100 | – | 100 | – | – | 100 | 100 | – | –
C[C@H](NC(=O)c1cc(Cl)cc(S(=O)(=O)C(F)(F)F)c1)c1ncnn1-c1ncc(OC(F)F)cn1 [II-43] | 80 to 100 | 80 to 100 | 100 | 100 | 100 | – | 100 | 100 | – | 100 | 100 | – | –
Cc1nc([C@H](C)NC(=O)c2cc(C(F)(F)F)cc(S(C)(=O)=O)c2)n(-c2ccc(C#N)cn2)n1 [II-52] | 80 to 100 | 80 to 100 | 100 | 100 | 100 | – | 100 | 100 | – | – | 100 | 90 | –
